Measurements taken from patent US20210113493A1, “KETAMINE FOR THE TREATMENT OF M[…] SYMPTOMS” (priority 2016, published 2021).

Columns and labels:
[1] = test system: subclinical menstrually related symptoms; conditions: 50 mg lozenges, ½ to 2 once to three times daily
[2] = Aun, Br. J. Anaesthesia 83: 29-41 (1999); cited from earlier work
[3] = test system: symptoms of menstrual related pain and emotion; assay: Evaluation of sublingual ketamine lozenges/ODTs in women, Daily Record of Severity of Problems

N[C@@]1(c2ccccc2Cl)CCC[C@@H](O)C1=O
mental clarity [1]: can experience an increase in mental clarity

CN[C@]1(c2ccccc2Cl)CCCCC1=O [S-(+)-ketamine]
potency for use in anesthesia relative to R-(−)-ketamine [2]: twice as potent as R-(−)-ketamine

CNC1(c2ccccc2Cl)CCCCC1=O (racemic) [ketamine]
subjects reporting sufficient improvement with a 25 mg dose ([3]; 25 mg dose, 9 women): Three subjects reported sufficient improvement
interference with functionality ([3]; 50 mg dose, 9 women): One subject reported that a 50 mg dose interfered with their functionality
relief of PMS symptoms at 100 mg dose ([3]; 100 mg dose, preferred by three subjects): substantial relief of PMS symptoms
negative after effects ([3]; 9 women): no reports of negative after effects
subjects reporting emotional symptom improvement during the symptomatic days of their cycles ([3]; 9 women, 25-100 mg ketamine racemate sublingual lozenge/ODT): 9 subjects
duration of effect ([3]; all subjects, beyond the time of administration): lasting for days, or more, beyond the time of ketamine administration
effect on breast tenderness and cramping ([3]; physical symptoms, 9 women): positively affected in three subjects, but not in six others
improvement of headaches ([3]; physical symptoms, 9 women): Two subjects reported improvement of headaches
duration of anesthetic effects ([3]; sublingual, first hour the intense portion): up to 2 hours
duration of relief of physical symptoms ([3]; two subjects, doses of 50 mg and 100 mg, until menses began): 5 days

NC1(c2ccccc2Cl)CCCCC1=O (stereo not shown) [norketamine]
potency for use in anesthesia relative to ketamine [2]: one third the potency of ketamine
